pIC50: −log10 of the molar value. “Also recorded” adds a separate entry of the source.
Legend:
MCL-1ΔNΔC = MCL-1ΔNΔC (Homo sapiens (Human), UniProt Q07820); assay: Competitive fluorescence polarization binding assay, MCL-1; conditions: Table A
Method: Here, we deployed MCL-1 SAHBA as a high fidelity screening tool to determine if its potency and specificity-of-action could be harnessed for small molecule discovery. […] A compilation of 71,296 small molecules was screened for the capacity to displace FITC-MCL-1 SAHBA from recombinant MCL-1ΔNΔC (aa 172-327) (FIG. 4).
Fluorescence polarization assays (FPA) were performed as previously described^38,39. […] Fluorescence polarization was measured at equilibrium and IC50 values calculated by nonlinear regression analysis of competitive binding curves using Prism software (Graphpad).

BFL-1/A1ΔC = BFL-1/A1ΔC (Homo sapiens (Human), UniProt Q16548); assay: Competitive fluorescence polarization binding assay, BFL-1/A1 (FITC-BID BH3); conditions: Table A
BFL-1/A1ΔC, sequence (Q16548 1-153): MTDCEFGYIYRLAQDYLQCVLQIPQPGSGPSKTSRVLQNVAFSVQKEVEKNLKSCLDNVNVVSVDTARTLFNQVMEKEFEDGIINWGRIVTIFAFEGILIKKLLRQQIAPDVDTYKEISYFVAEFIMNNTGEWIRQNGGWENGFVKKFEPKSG
From the text: FIG. 19A and FIG. 19B are graphs that show potent targeting of the anti-apoptotic protein BFL-1/A1 by MIM1. […] Thus, the complex between FITC-BID BH3 and BFL-1/A1ΔC was employed in a competitive FP assay to monitor the capacity of MIM1 to target BFL-1/A1ΔC.

[1] = system: wild-type or Bax−/−Bak−/− MEFs; assay: Cell viability (CellTiter-Glo), MEFs; format: cell-based, mouse; conditions: non-malignant fibroblasts, 24 h
Method: (§1) p185^+Arf^−/− and MCL-1 or BCL-XL-rescued p185^+Arf^−/−Mcl^−/− cells were maintained in RPMI 1640 (ATCC) supplemented with 10% (v/v) FBS, 100 U/mL penicillin, 100 μg/mL streptomycin, 0.1 mM MEM non-essential amino acids and 50 μM β-mercaptoethanol. Mouse embryonic fibroblasts (MEFs) cells were maintained in DMEM high glucose (Invitrogen) supplemented with 10% (v/v) FBS, 100 U/mL penicillin, 100 μg/mL streptomycin, 2 mM L-glutamine, 50 mM HEPES, 0.1 mM MEM non-essential amino acids and 50 μM β-mercaptoethanol. […] Cell viability was assayed at 24 h by addition of CellTiter-Glo reagent according to the manufacturer's protocol (Promega), and luminescence was measured using a SpectraMax M5 microplate reader (Molecular Devices). Caspase 3/7 activation was assayed at 8 h by addition of Caspase-Glo 3/7 reagent according to manufacturer's protocol (Promega), and luminescence measured using a SpectraMax M5 microplate reader. Viability and caspase assays were performed in duplicate, repeated at least twice with independent cell cultures, and the data normalized to vehicle-treated control wells.

BCL-XLΔC = BCL-XLΔC (Homo sapiens (Human), UniProt Q07817); assay: Competitive fluorescence polarization binding assay, BCL-XL; conditions: tracer FITC-BID BH3; read-out: IC50, displacement of FITC-BID BH3 from BCL-XLΔC
BCL-XLΔC, sequence (Q07817 1-212): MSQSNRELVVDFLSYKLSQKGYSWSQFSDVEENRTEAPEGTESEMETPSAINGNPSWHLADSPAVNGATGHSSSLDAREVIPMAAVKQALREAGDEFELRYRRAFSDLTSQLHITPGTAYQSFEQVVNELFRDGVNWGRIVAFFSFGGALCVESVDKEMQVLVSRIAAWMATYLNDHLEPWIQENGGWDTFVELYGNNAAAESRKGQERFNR

[2] = system: MCL-1-rescued p185+Arf−/−Mcl-1−/− CML cells; assay: Cell viability (CellTiter-Glo), MCL-1-dependent leukemia cells; format: cell-based, murine; conditions: Mus musculus; MCL-1-dependent cells, 24 h
From the text: A challenges in developing and applying molecular antagonists for BCL-2 family anti-apoptotic proteins is the variable expression of multiple homologues. That is, a cancer cell will only be susceptible to a selective anti-apoptotic inhibitor if the cell is especially dependent on that particular survival protein. […] To test MIM1's activity and specificity in cancer cells, we employed murine p185^+Arf^−/−Mcl-1^−/− chronic myelogenous leukemia (CML) cells that are unable to survive unless reconstituted with MCL-1, reflecting a stringent system for assessing MCL-1 dependence.
p185^+Arf^−/− and MCL-1 or BCL-XL-rescued p185^+Arf^−/−Mcl^−/− cells were maintained in RPMI 1640 (ATCC) supplemented with 10% (v/v) FBS, 100 U/mL penicillin, 100 μg/mL streptomycin, 0.1 mM MEM non-essential amino acids and 50 μM β-mercaptoethanol. […] Cell viability was assayed at 24 h by addition of CellTiter-Glo reagent according to the manufacturer's protocol (Promega), and luminescence was measured using a SpectraMax M5 microplate reader (Molecular Devices). Caspase 3/7 activation was assayed at 8 h by addition of Caspase-Glo 3/7 reagent according to manufacturer's protocol (Promega), and luminescence measured using a SpectraMax M5 microplate reader. […]

[3] = system: parental p185+Arf−/− CML cells; assay: Cell viability and CalcuSyn synergy, parental leukemia cells; format: cell-based, murine; conditions: Mus musculus; parental cells expressing both MCL-1 and BCL-XL; read-out: IC50, cytotoxicity
Method: as §1

[4] = system: wild-type or Bax−/−Bak−/− MEFs; assay: Caspase 3/7 activation (Caspase-Glo), MEFs; format: cell-based, mouse; conditions: 8 h
Method: as §1

MCL-1ΔNΔC, sequence (Q07820 172-327, stated change not applied): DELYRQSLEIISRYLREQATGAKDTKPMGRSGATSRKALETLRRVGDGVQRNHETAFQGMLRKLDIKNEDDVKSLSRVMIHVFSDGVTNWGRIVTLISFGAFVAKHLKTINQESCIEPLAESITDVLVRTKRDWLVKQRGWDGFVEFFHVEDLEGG

pIC50 (MCL-1ΔNΔC)	pIC50 (BFL-1/A1ΔC)	Structure (SMILES)	further results
5.57	5.96	Cc1cs/c(=N\CC2CCCCC2)n1/N=C/c1ccc(O)c(O)c1O [187-5]	–
6.91	7.59	Oc1cc(O)c(/C=N/n2c(C3CC3)cs/c2=N\C2CCCCC2)cc1O [187-7]	–
–	5.08	Cc1cs/c(=N\C2CCCCC2)n1/N=C/c1cc(O)c(O)cc1F [187-8]	–
–	5.04	CC(C)(C)c1cs/c(=N\C2CCCCC2)n1/N=C/c1cc(O)c(O)cc1F [187-10]	–
5.75	5.68	Cc1cs/c(=N\C(C)C(C)C)n1/N=C/c1ccc(O)c(O)c1O (stereo not drawn) [187-20]	–
5.85	6.84	Cc1cs/c(=N\C2CCCc3ccccc32)n1/N=C/c1cc(O)c(O)cc1O (stereo not drawn) [187-22]	–
5.36	5.96	Cc1cs/c(=N\C2CCCc3ccccc32)n1/N=C/c1ccc(O)c(O)c1O (stereo not drawn) [187-23]	–
5.37	5.82	CC(C)C(C)/N=c1\scc(C(C)(C)C)n1/N=C/c1ccc(O)c(O)c1O (stereo not drawn) [187-27]	–
–	5.55	CCc1s/c(=N\C2CCCCC2)n(/N=C/c2ccc(O)c(O)c2O)c1C(C)(C)C [187-37]	–
5.14	5.96	CC(C)C(C)/N=c1\scc(C2CC2)n1/N=C/c1cc(O)c(O)cc1O (stereo not drawn) [187-39]	–
6.23	6.93	Cc1s/c(=N\C2CCCCC2)n(/N=C/c2cc(O)c(O)cc2O)c1C1CC1 [187-44]	–
–	6.13	Cc1s/c(=N\C2CCN(C(=O)OC(C)(C)C)CC2)n(/N=C/c2ccc(O)c(O)c2O)c1C1CC1 [187-50]	–
6.03	6.57	Cc1cs/c(=N\C2CC3CCC2C3)n1/N=C/c1cc(O)c(O)cc1O (stereo not drawn) [187-79]	–
–	4.51	Cc1cs/c(=N\C2CCCCC2)n1/N=C/c1c(O)cc(O)cc1O [187-81]	–
4.88	5.09	Cc1cs/c(=N\c2ccccc2)n1/N=C/c1ccc(O)c(O)c1 [187-82]	–
–	5.52	Oc1ccc(/C=N/n2c(C3CC3)cs/c2=N\c2ccccc2)cc1O [187-95]	–
–	4.82	COc1cc(/C=N/n2c(C(C)(C)C)cs/c2=N\C2CCCCC2)c(O)cc1O [190-4]	–
–	5.77	Oc1ccc(/C=N/n2c(-c3cccs3)cs/c2=N\c2ccccc2)c(O)c1O [190-18]	–
–	6.44	Oc1ccc(/C=N/n2c(C3CC3)cs/c2=N\c2ccccc2)c(O)c1O [190-20]	–

The next lines start with the compound.

Structure (SMILES)	pIC50 (MCL-1ΔNΔC)	pIC50 (BFL-1/A1ΔC)	further results
Oc1ccc(/C=N/NC(=S)NC2CCCCC2)c(O)c1O [178-72]	4.80	5.29	–
CCc1cs/c(=N\C2CCCCC2)n1/N=C/c1ccc(O)c(O)c1O [178-82]	5.68	5.92	–
Oc1ccc(/C=N/n2c(C3CC3)cs/c2=N\C2CCCCC2)c(O)c1O [178-83]	6.04	6.11	–
COC(=O)Cc1cs/c(=N\C2CCCCC2)n1/N=C/c1ccc(O)c(O)c1O [178-97]	5.02	6.00	–
Cc1s/c(=N\C2CCCCC2)n(/N=C/c2ccc(O)c(O)c2O)c1C [183-8]	5.82	6.15	–
Cc1cs/c(=N\C2CCCC2)n1/N=C/c1ccc(O)c(O)c1O [183-19]	5.51	6.20	–
Cc1cs/c(=N\c2ccccc2)n1/N=C/c1ccc(O)c(O)c1O [183-20]	–	6.58	–
Oc1ccc(/C=N/n2c(C3CC3)cs/c2=N\c2ccccc2)c(O)c1O [183-21]	5.37	6.14	–
Oc1ccc(/C=N/n2c(C3CC3)cs/c2=N\C2CCCC2)c(O)c1O [183-22]	5.62	6.22	–
CCOc1ccccc1/N=c1\scc(C)n1/N=C/c1ccc(O)c(O)c1O [183-24]	4.80	5.60	–
Cc1cs/c(=N\C2CCCCC2)n1/N=C/c1ccc(O)c(O)c1 [183-38]	4.92	6.55	–
CC(C)(C)c1cs/c(=N\C2CCCCC2)n1/N=C/c1ccc(O)c(O)c1O [183-44]	6.27	6.04	–
Oc1ccc(/C=N/N2/C(=N/C3CCCCC3)SCC2(O)C(F)(F)F)c(O)c1O (stereo not drawn) [183-51]	5.54	5.92	–
CC(C)(C)c1cs/c(=N\C2CCCCC2)n1/N=C/c1ccc(O)c(O)c1 [183-65]	4.75	5.68	–
CC(C)(C)Cc1cs/c(=N\C2CCCCC2)n1/N=C/c1ccc(O)c(O)c1O [183-70]	5.71	5.82	–
Oc1ccc(/C=N/n2c(-c3cccs3)cs/c2=N\C2CCCCC2)c(O)c1O [183-76]	4.96	6.41	–
Oc1ccc(/C=N/n2c3c(s/c2=N\C2CCCCC2)CCCC3)c(O)c1O [183-81]	5.35	5.89	–
Cc1cs/c(=N\C2CC3CCC2C3)n1/N=C/c1cc(O)c(O)cc1O (stereo not drawn) [183-82]	6.00	6.77	–
Cc1cs/c(=N\C2CCCCC2)n1/N=C/c1cc(O)c(O)c(O)c1 [183-84]	4.89	6.50	–
COc1cc(/C=N/n2c(C)cs/c2=N\C2CCCCC2)cc(OC)c1OC [183-85]	5.12	–	–
CC(C)(C)c1cs/c(=N\C2CCCCC2)n1/N=C/c1cc(O)c(O)cc1O [183-87]	6.82	7.38	–
CC(C)(C)c1cs/c(=N\C2CCCCC2)n1/N=C/c1cc(O)c(O)c(O)c1 [183-88]	5.94	6.12	–
Cc1s/c(=N\C2CCCCC2)n(/N=C/c2cc(O)c(O)cc2O)c1C [183-89]	6.11	6.24	–
CCOC(=O)c1s/c(=N\C2CCCCC2)n(/N=C/c2ccc(O)c(O)c2O)c1C [183-91]	4.93	6.42	–
CC(C)C(C)/N=C1\SCC(Br)(C2CC2)N1/N=C/c1cc(O)c(O)cc1O (stereo not drawn) [187-19]	6.05	–	–
Cc1cs/c(=N\C2CCCCC2)n1/N=C/c1ccc(O)c(O)c1O [MIM1, 4-((E)-(((Z)-2-(cyclohexylimino)-4-methylthiazol-3(2H)-yl)imino)methyl)benzene-1,2,3-triol]	–	–	effect on viability / toxicity [1]: little to no toxicity; also recorded: no significant effect; pIC50 (BCL-XLΔC): < 4.30; pIC50 [2]: 5.38; pIC50 [3]: 4.97; caspase 3/7 activation [4]: no observed caspase 3/7 activation
